According to paper PMC4512239 (Clinical cancer research : an official journal of the …, 2015):

Assay: phase I safety and tolerability
Type: in vivo, human

## CNC(=O)c1cccc(-c2ccc3c(N4CCOC[C@@H]4C)nc(N4CCOC[C@@H]4C)nc3n2)c1 [AZD2014]
50 mg BD cohort
  grade 3 or above hypercholesterolemia or triglyceridemia: no grade 3 or above hypercholesterolemia or triglyceridemia was seen
50 mg BD starting dose, 6 patients
  dose limiting toxicities: no DLTs
50 mg BD, Part A and Part B
  nausea, mucositis, diarrhea and vomiting: share of grade 3 or 4: less than 5%
  rash: share of grade 3 or higher: less than 5%
70 mg BD
  evaluable patients with dose limiting toxicities: 2/4
100 mg BD
  patients with dose limiting toxicities: 4/4
All 50mg BD solution (N=41)
  Anemia, Any grade: 7 (17.1) Number (%) of patients
  Anemia, CTCAE grade 1-2: 7 (17.1) Number (%) of patients
  Anemia, CTCAE grade >=3: 0 Number (%) of patients
  Back pain, Any grade: 7 (17.1) Number (%) of patients
  Back pain, CTCAE grade 1-2: 6 (14.6) Number (%) of patients
  Back pain, CTCAE grade >=3: 1 (2.4) Number (%) of patients
  Constipation, Any grade: 13 (31.7) Number (%) of patients
  Constipation, CTCAE grade 1-2: 13 (31.7) Number (%) of patients
  Constipation, CTCAE grade >=3: 0 Number (%) of patients
  Cough, Any grade: 8 (19.5) Number (%) of patients
  Cough, CTCAE grade 1-2: 8 (19.5) Number (%) of patients
  Cough, CTCAE grade >=3: 0 Number (%) of patients
  Decreased appetite, Any grade: 17 (41.5) Number (%) of patients
  Decreased appetite, CTCAE grade 1-2: 17 (41.5) Number (%) of patients
  Decreased appetite, CTCAE grade >=3: 0 Number (%) of patients
  Diarrhea, Any grade: 17 (41.5) Number (%) of patients
  Diarrhea, CTCAE grade 1-2: 17 (41.5) Number (%) of patients
  Diarrhea, CTCAE grade >=3: 0 Number (%) of patients
  Dry mouth, Any grade: 8 (19.5) Number (%) of patients
  Dry mouth, CTCAE grade 1-2: 8 (19.5) Number (%) of patients
  Dry mouth, CTCAE grade >=3: 0 Number (%) of patients
  Dyspnea, Any grade: 7 (17.1) Number (%) of patients
  Dyspnea, CTCAE grade 1-2: 5 (12.2) Number (%) of patients
  Dyspnea, CTCAE grade >=3: 2 (4.9) Number (%) of patients
  Fatigue, Any grade: 32 (78.0) Number (%) of patients
  Fatigue, CTCAE grade 1-2: 30 (73.2) Number (%) of patients
  Fatigue, CTCAE grade >=3: 2 (4.9) Number (%) of patients
  Hypokalemia, Any grade: 6 (14.6) Number (%) of patients
  Hypokalemia, CTCAE grade 1-2: 5 (12.2) Number (%) of patients
  Hypokalemia, CTCAE grade >=3: 1 (2.4) Number (%) of patients
  Lower respiratory tract infection, Any grade: 7 (17.1) Number (%) of patients
  Lower respiratory tract infection, CTCAE grade 1-2: 6 (14.6) Number (%) of patients
  Lower respiratory tract infection, CTCAE grade >=3: 1 (2.4) Number (%) of patients
  Mucositis, Any grade: 20 (48.8) Number (%) of patients
  Mucositis, CTCAE grade 1-2: 19 (46.3) Number (%) of patients
  Mucositis, CTCAE grade >=3: 1 (2.4) Number (%) of patients
  Nausea, Any grade: 21 (51.2) Number (%) of patients
  Nausea, CTCAE grade 1-2: 19 (46.3) Number (%) of patients
  Nausea, CTCAE grade >=3: 2 (4.9) Number (%) of patients
  Pruritus, Any grade: 13 (31.7) Number (%) of patients
  Pruritus, CTCAE grade 1-2: 13 (31.7) Number (%) of patients
  Pruritus, CTCAE grade >=3: 0 Number (%) of patients
  Rash, Any grade: 17 (41.5) Number (%) of patients
  Rash, CTCAE grade 1-2: 15 (36.6) Number (%) of patients
  Rash, CTCAE grade >=3: 2 (4.9) Number (%) of patients
  Vomiting, Any grade: 12 (29.3) Number (%) of patients
  Vomiting, CTCAE grade 1-2: 11 (26.8) Number (%) of patients
  Vomiting, CTCAE grade >=3: 1 (2.4) Number (%) of patients
Part A 25mg BD solution (N=6)
  Anemia, Any grade: 0 Number (%) of patients
  Anemia, CTCAE grade 1-2: 0 Number (%) of patients
  Anemia, CTCAE grade >=3: 0 Number (%) of patients
  Back pain, Any grade: 0 Number (%) of patients
  Back pain, CTCAE grade 1-2: 0 Number (%) of patients
  Back pain, CTCAE grade >=3: 0 Number (%) of patients
  Constipation, Any grade: 2 (33.3) Number (%) of patients
  Constipation, CTCAE grade 1-2: 2 (33.3) Number (%) of patients
  Constipation, CTCAE grade >=3: 0 Number (%) of patients
  Cough, Any grade: 3 (50.0) Number (%) of patients
  Cough, CTCAE grade 1-2: 3 (50.0) Number (%) of patients
  Cough, CTCAE grade >=3: 0 Number (%) of patients
  Decreased appetite, Any grade: 3 (50.0) Number (%) of patients
  Decreased appetite, CTCAE grade 1-2: 3 (50.0) Number (%) of patients
  Decreased appetite, CTCAE grade >=3: 0 Number (%) of patients
  Diarrhea, Any grade: 2 (33.3) Number (%) of patients
  Diarrhea, CTCAE grade 1-2: 2 (33.3) Number (%) of patients
  Diarrhea, CTCAE grade >=3: 0 Number (%) of patients
  Dry mouth, CTCAE grade >=3: 0 Number (%) of patients
  Dyspnea, Any grade: 1 (16.7) Number (%) of patients
  Dyspnea, CTCAE grade 1-2: 1 (16.7) Number (%) of patients
  Dyspnea, CTCAE grade >=3: 0 Number (%) of patients
  Fatigue, Any grade: 3 (50.0) Number (%) of patients
  Fatigue, CTCAE grade 1-2: 2 (33.3) Number (%) of patients
  Fatigue, CTCAE grade >=3: 1 (16.7) Number (%) of patients
  Hypokalemia, Any grade: 2 (33.3) Number (%) of patients
  Hypokalemia, CTCAE grade 1-2: 2 (33.3) Number (%) of patients
  Hypokalemia, CTCAE grade >=3: 0 Number (%) of patients
  Lower respiratory tract infection, Any grade: 1 (16.7) Number (%) of patients
  Lower respiratory tract infection, CTCAE grade 1-2: 0 Number (%) of patients
  Lower respiratory tract infection, CTCAE grade >=3: 1 (16.7) Number (%) of patients
  Mucositis, Any grade: 2 (33.3) Number (%) of patients
  Mucositis, CTCAE grade 1-2: 2 (33.3) Number (%) of patients
  Mucositis, CTCAE grade >=3: 0 Number (%) of patients
  Nausea, Any grade: 2 (33.3) Number (%) of patients
  Nausea, CTCAE grade 1-2: 2 (33.3) Number (%) of patients
  Nausea, CTCAE grade >=3: 0 Number (%) of patients
  Pruritus, Any grade: 0 Number (%) of patients
  Pruritus, CTCAE grade 1-2: 0 Number (%) of patients
  Pruritus, CTCAE grade >=3: 0 Number (%) of patients
  Rash, Any grade: 1(16.7) Number (%) of patients
  Rash, CTCAE grade 1-2: 1(16.7) Number (%) of patients
  Rash, CTCAE grade >=3: 0 Number (%) of patients
  Vomiting, Any grade: 0 Number (%) of patients
  Vomiting, CTCAE grade 1-2: 0 Number (%) of patients
  Vomiting, CTCAE grade >=3: 0 Number (%) of patients
Part A 70mg BD solution (N=5)
  Anemia, Any grade: 1 (20.0) Number (%) of patients
  Anemia, CTCAE grade 1-2: 0 Number (%) of patients
  Anemia, CTCAE grade >=3: 1 (20.0) Number (%) of patients
  Back pain, Any grade: 0 Number (%) of patients
  Back pain, CTCAE grade 1-2: 0 Number (%) of patients
  Back pain, CTCAE grade >=3: 0 Number (%) of patients
  Constipation, Any grade: 0 Number (%) of patients
  Constipation, CTCAE grade 1-2: 0 Number (%) of patients
  Constipation, CTCAE grade >=3: 0 Number (%) of patients
  Cough, Any grade: 1 (20.0) Number (%) of patients
  Cough, CTCAE grade 1-2: 1 (20.0) Number (%) of patients
  Cough, CTCAE grade >=3: 0 Number (%) of patients
  Decreased appetite, Any grade: 2 (40.0) Number (%) of patients
  Decreased appetite, CTCAE grade 1-2: 2 (40.0) Number (%) of patients
  Decreased appetite, CTCAE grade >=3: 0 Number (%) of patients
  Diarrhea, Any grade: 3 (60.0) Number (%) of patients
  Diarrhea, CTCAE grade 1-2: 3 (60.0) Number (%) of patients
  Diarrhea, CTCAE grade >=3: 0 Number (%) of patients
  Dry mouth, Any grade: 0 Number (%) of patients
  Dry mouth, CTCAE grade 1-2: 0 Number (%) of patients
  Dry mouth, CTCAE grade >=3: 0 Number (%) of patients
  Dyspnea, Any grade: 1 (20.0) Number (%) of patients
  Dyspnea, CTCAE grade 1-2: 1 (20.0) Number (%) of patients
  Dyspnea, CTCAE grade >=3: 0 Number (%) of patients
